Measured values as given in patent publication US20260109712A1, “RIFAMYCINS FOR NONTUBERCULOUS MYCOBACTERIA” (priority 2022, published 2026).
In brackets after ≈: the same amount, converted by molar mass.

How the values were obtained:
[1] = system: M. abscessus ATCC 19977; test: MIC assay in 96-well plate format, wild-type strain; format: cell-based, Mycobacterium abscessus; conditions: for MICWT: Table 10; for MIC: Table 15, heterocyclic aromatic carbamates, read-out: WT Mab MIC
How it was run: (§1)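 Two-fold, ten-point dilutions in 7H9 with 2% DMSO; mid-log culture diluted to OD600=0.1 (1×10^7 CFU/mL). Incubated 3 days at 37 °C, shaking 110 RPM; growth = Day 3 minus Day 0 OD600, expressed as percentage of drug-free growth and plotted against concentration. Two biological replicates.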

[2] = system: Δarr M. abscessus; test: MIC assay, isogenic arr-deleted strain; format: cell-based, Mycobacterium abscessus; conditions: Table 10
How it was run: as §1

[3] = Plasma protein binding assay (rapid equilibrium dialysis); format: in vitro ADME
How it was run: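 Plasma was spiked to 10,000 ng/mL compound and dialysed against PBS by rapid equilibrium dialysis for 4 h at 37° C with shaking at 300 RPM. Plasma and buffer aliquots were matrix-matched 1:1 […] and quantified by LC-MS/MS.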

[4] = system: Mycobacterium abscessus; test: MIC against Mycobacterium abscessus (strain not given); format: cell-based; conditions: Table 13; read-out: Mab MIC
[5] = Mouse pharmacokinetics studies; format: in vivo, CD-1 mice; conditions: for AUCp.o.: po
Procedure: Blood was captured in CB300 blood collection tubes containing K2EDTA and stored on ice. Plasma was recovered after centrifugation and stored at −80° C. until analyzed by high pressure liquid chromatography coupled to tandem mass spectrometry (LC-MS/MS). Pharmacokinetic parameters were calculated using non-compartmental pharmacokinetic analysis. […] Extracts were vortexed for 5 minutes and centrifuged at 4000 RPM for 5 minutes. 75 μL of supernatant was transferred for LC-MS/MS analysis and diluted with 75 μL of Milli-Q deionized water. Rifabutin was purchased from Carbosynth. C25-desacetyl rifabutin and rifabutin-d7 were purchased from Toronto Research Chemical. Verapamil was purchased from Sigma-Aldrich. […] Multiple-reaction monitoring of parent/daughter transitions in electrospray positive-ionization mode was used to quantify all analytes. […] Data processing was performed using Analyst software (version 1.6.2; Applied Biosystems Sciex).

[6] = AUC25-O-desacetyl RFB/AUCcompound × 100%, n.d. = undetectable

COc1ccc(C(=O)O[C@H]2[C@H](C)[C@H](O)[C@H](C)[C@@H](O)[C@@H](C)/C=C/C=C(\C)C(=O)NC3=C4NC5(CCN(CC(C)C)CC5)N=C4c4c(c(O)c(C)c5c4C(=O)[C@@](C)(O/C=C/[C@H](OC)[C@H]2C)O5)C3=O)cc1 [UMN10]
MICWT [1]: 0.06 µM
MICΔorr [2]: 0.065 µM
ƒu [3]: 0.02%
plasma unbound fraction ([3]; plasma): 0%
MIC [4]: 0.06 µM (≈ 0.0563 µg/mL)

CO[C@H]1/C=C/O[C@@]2(C)Oc3c(C)c(O)c4c(c3C2=O)C2=NC3(CCN(CC(C)C)CC3)NC2=C(NC(=O)/C(C)=C/C=C/[C@H](C)[C@H](O)[C@@H](C)[C@@H](O)[C@@H](C)[C@H](OC(=O)c2ccc(F)cc2)[C@@H]1C)C4=O [UMN11]
MICWT [1]: 0.13 µM
MICΔorr [2]: 0.069 µM
ƒu [3]: 0.02%
plasma unbound fraction ([3]; plasma): 0.02%
MIC [4]: 0.13 µM (≈ 0.121 µg/mL)

CO[C@H]1/C=C/O[C@@]2(C)Oc3c(C)c(O)c4c(c3C2=O)C2=NC3(CCN(CC(C)C)CC3)NC2=C(NC(=O)/C(C)=C/C=C/[C@H](C)[C@H](O)[C@@H](C)[C@@H](O)[C@@H](C)[C@H](OC(=O)c2ccc(Cl)cc2)[C@@H]1C)C4=O [UMN12]
MICWT [1]: 0.13 µM
MICΔorr [2]: 0.22 µM
ƒu [3]: 0.01%
plasma unbound fraction ([3]; plasma): 0.01%
MIC [4]: 0.13 µM (≈ 0.123 µg/mL)

CO[C@H]1/C=C/O[C@@]2(C)Oc3c(C)c(O)c4c(c3C2=O)C2=NC3(CCN(CC(C)C)CC3)NC2=C(NC(=O)/C(C)=C/C=C/[C@H](C)[C@H](O)[C@@H](C)[C@@H](O)[C@@H](C)[C@H](OC(=O)c2ccc(C(F)(F)F)cc2)[C@@H]1C)C4=O [UMN13]
MICWT [1]: 0.24 µM
MICΔorr [2]: 0.66 µM
ƒu [3]: 0%
plasma unbound fraction ([3]; plasma): 0%
MIC [4]: 0.24 µM (≈ 0.235 µg/mL)

CO[C@H]1/C=C/O[C@@]2(C)Oc3c(C)c(O)c4c(c3C2=O)C2=NC3(CCN(CC(C)C)CC3)NC2=C(NC(=O)/C(C)=C/C=C/[C@H](C)[C@H](O)[C@@H](C)[C@@H](O)[C@@H](C)[C@H](OC(=O)Nc2ccccc2)[C@@H]1C)C4=O [UMN14]
MICWT [1]: 0.027 µM
MIC [1]: 0.027 µM (≈ 0.025 µg/mL)
MICΔorr [2]: 0.042 µM
ƒAUC/MIC ([5]; Table 18): 0.8
CL ([5]; mouse, in vivo): 2.40 mL/min/kg
F ([5]; mouse, in vivo): 38%
Vd ([5]; mouse, in vivo): 1.93 L/kg
AUCp.o. ([5]; mouse, in vivo): 25625 ng·h/mL
ƒu [3]: 0.1%
plasma unbound fraction ([3]; plasma): 0.08%

CO[C@H]1/C=C/O[C@@]2(C)Oc3c(C)c(O)c4c(c3C2=O)C2=NC3(CCN(CC(C)C)CC3)NC2=C(NC(=O)/C(C)=C/C=C/[C@H](C)[C@H](O)[C@@H](C)[C@@H](O)[C@@H](C)[C@H](OC(=O)c2cccc(-c3ccccc3)c2)[C@@H]1C)C4=O [UMN18]
MICWT [1]: 1.10 µM
MICΔorr [2]: 1.05 µM
ƒu [3]: 0.01%
plasma unbound fraction ([3]; plasma): 0%
MIC [4]: 1.1 µM (≈ 1.08 µg/mL)

CO[C@H]1/C=C/O[C@@]2(C)Oc3c(C)c(O)c4c(c3C2=O)C2=NC3(CCN(CC(C)C)CC3)NC2=C(NC(=O)/C(C)=C/C=C/[C@H](C)[C@H](O)[C@@H](C)[C@@H](O)[C@@H](C)[C@H](OC(=O)c2cccc(C(F)(F)F)c2)[C@@H]1C)C4=O [UMN19]
MICWT [1]: 0.48 µM
MICΔorr [2]: 0.36 µM
ƒu [3]: 0%
plasma unbound fraction ([3]; plasma): 0%
MIC [4]: 0.48 µM (≈ 0.469 µg/mL)

COc1cccc(C(=O)O[C@H]2[C@H](C)[C@H](O)[C@H](C)[C@@H](O)[C@@H](C)/C=C/C=C(\C)C(=O)NC3=C4NC5(CCN(CC(C)C)CC5)N=C4c4c(c(O)c(C)c5c4C(=O)[C@@](C)(O/C=C/[C@H](OC)[C@H]2C)O5)C3=O)c1 [UMN26]
MICWT [1]: 0.13 µM
MICΔorr [2]: 0.13 µM
ƒu [3]: 0.02%
plasma unbound fraction ([3]; plasma): 0.02%
MIC [4]: 0.13 µM (≈ 0.122 µg/mL)

CO[C@H]1/C=C/O[C@@]2(C)Oc3c(C)c(O)c4c(c3C2=O)C2=NC3(CCN(CC(C)C)CC3)NC2=C(NC(=O)/C(C)=C/C=C/[C@H](C)[C@H](O)[C@@H](C)[C@@H](O)[C@@H](C)[C@H](OC(=O)c2cccc(Cl)c2)[C@@H]1C)C4=O [UMN27]
MICWT [1]: 0.14 µM
MICΔorr [2]: 0.13 µM
ƒu [3]: 0%
plasma unbound fraction ([3]; plasma): 0%
MIC [4]: 0.14 µM (≈ 0.132 µg/mL)

CO[C@H]1/C=C/O[C@@]2(C)Oc3c(C)c(O)c4c(c3C2=O)C2=NC3(CCN(CC(C)C)CC3)NC2=C(NC(=O)/C(C)=C/C=C/[C@H](C)[C@H](O)[C@@H](C)[C@@H](O)[C@@H](C)[C@H](OC(=O)c2ccc(-c3ccccc3)cc2)[C@@H]1C)C4=O [UMN28]
MICWT [1]: 0.85 µM
MICΔorr [2]: 1.00 µM
ƒu [3]: 0%
plasma unbound fraction ([3]; plasma): 0%
MIC [4]: 0.85 µM (≈ 0.837 µg/mL)

CO[C@H]1/C=C/O[C@@]2(C)Oc3c(C)c(O)c4c(c3C2=O)C2=NC3(CCN(CC(C)C)CC3)NC2=C(NC(=O)/C(C)=C/C=C/[C@H](C)[C@H](O)[C@@H](C)[C@@H](O)[C@@H](C)[C@H](OC(=O)c2ccncc2)[C@@H]1C)C4=O [UMN47]
MICWT [1]: 0.017 µM
MICΔorr [2]: 0.017 µM
ƒu [3]: 2.0%
plasma unbound fraction ([3]; plasma): 2.00%
MIC [4]: 0.017 µM (≈ 0.0155 µg/mL)

CO[C@H]1/C=C/O[C@@]2(C)Oc3c(C)c(O)c4c(c3C2=O)C2=NC3(CCN(CC(C)C)CC3)NC2=C(NC(=O)/C(C)=C/C=C/[C@H](C)[C@H](O)[C@@H](C)[C@@H](O)[C@@H](C)[C@H](OC(=O)c2ccccn2)[C@@H]1C)C4=O [UMN48]
MICWT [1]: 0.02 µM
MICΔorr [2]: 0.026 µM
ƒu [3]: 3.0%
plasma unbound fraction ([3]; plasma): 2.95%
MIC [4]: 0.02 µM (≈ 0.0182 µg/mL)

CO[C@H]1/C=C/O[C@@]2(C)Oc3c(C)c(O)c4c(c3C2=O)C2=NC3(CCN(CC(C)C)CC3)NC2=C(NC(=O)/C(C)=C/C=C/[C@H](C)[C@H](O)[C@@H](C)[C@@H](O)[C@@H](C)[C@H](OC(=O)c2ccnnc2)[C@@H]1C)C4=O [UMN49]
MICWT [1]: 0.033 µM
MICΔorr [2]: 0.034 µM
ƒu [3]: 8.2%
plasma unbound fraction ([3]; plasma): 8.22%
MIC [4]: 0.033 µM (≈ 0.0301 µg/mL)

CO[C@H]1/C=C/O[C@@]2(C)Oc3c(C)c(O)c4c(c3C2=O)C2=NC3(CCN(CC(C)C)CC3)NC2=C(NC(=O)/C(C)=C/C=C/[C@H](C)[C@H](O)[C@@H](C)[C@@H](O)[C@@H](C)[C@H](OC(=O)c2ccncn2)[C@@H]1C)C4=O [UMN50]
MICWT [1]: 0.035 µM
MICΔorr [2]: 0.036 µM
ƒu [3]: 7.2%
plasma unbound fraction ([3]; plasma): 7.22%
MIC [4]: 0.035 µM (≈ 0.0319 µg/mL)

CO[C@H]1/C=C/O[C@@]2(C)Oc3c(C)c(O)c4c(c3C2=O)C2=NC3(CCN(CC(C)C)CC3)NC2=C(NC(=O)/C(C)=C/C=C/[C@H](C)[C@H](O)[C@@H](C)[C@@H](O)[C@@H](C)[C@H](OC(=O)Nc2nncs2)[C@@H]1C)C4=O [UMN69]
MICWT [1]: 0.026 µM
MIC [1]: 0.026 µM (≈ 0.0242 µg/mL)
MICΔorr [2]: 0.027 µM
ƒAUC/MIC ([5]; Table 18): 26.5
CL ([5]; mouse, in vivo): 6.19 mL/min/kg
F ([5]; mouse, in vivo): 45%
Vd ([5]; mouse, in vivo): 1.14 L/kg
AUCp.o. ([5]; mouse, in vivo): 12103 ng·h/mL
ƒu [3]: 5.3%
plasma unbound fraction ([3]; plasma): 5.30%

CO[C@H]1/C=C/O[C@@]2(C)Oc3c(C)c(O)c4c(c3C2=O)C2=NC3(CCN(CC(C)C)CC3)NC2=C(NC(=O)/C(C)=C/C=C/[C@H](C)[C@H](O)[C@@H](C)[C@@H](O)[C@@H](C)[C@H](OC(=O)c2ncccn2)[C@@H]1C)C4=O [UMN92]
ƒu [3]: 9.8%
MIC [4]: 0.057 µM (≈ 0.0519 µg/mL)

CO[C@H]1/C=C/O[C@@]2(C)Oc3c(C)c(O)c4c(c3C2=O)C2=NC3(CCN(CC(C)C)CC3)NC2=C(NC(=O)/C(C)=C/C=C/[C@H](C)[C@H](O)[C@@H](C)[C@@H](O)[C@@H](C)[C@H](OC(=O)c2cncs2)[C@@H]1C)C4=O [UMN93]
ƒu [3]: 1.6%
MIC [4]: 0.057 µM (≈ 0.0522 µg/mL)

CO[C@H]1/C=C/O[C@@]2(C)Oc3c(C)c(O)c4c(c3C2=O)C2=NC3(CCN(CC(C)C)CC3)NC2=C(NC(=O)/C(C)=C/C=C/[C@H](C)[C@H](O)[C@@H](C)[C@@H](O)[C@@H](C)[C@H](OC(=O)Nc2ccncc2)[C@@H]1C)C4=O [UMN105]
MIC [1]: 0.025 µM (≈ 0.0231 µg/mL)
CL ([5]; mouse, in vivo): 7.57 mL/min/kg
F ([5]; mouse, in vivo): 63%
Vd ([5]; mouse, in vivo): 3.78 L/kg
ƒAUC/MIC ([5]; mouse, in vivo): 9.4
AUCp.o. ([5]; mouse, in vivo): 14210 ng·h/mL
ƒu [3]: 2.0%

CO[C@H]1/C=C/O[C@@]2(C)Oc3c(C)c(O)c4c(c3C2=O)C2=NC3(CCN(CC(C)C)CC3)NC2=C(NC(=O)/C(C)=C/C=C/[C@H](C)[C@H](O)[C@@H](C)[C@@H](O)[C@@H](C)[C@H](OC(=O)c2cccnn2)[C@@H]1C)C4=O [UMN111]
ƒu [3]: 12.7%
MIC [4]: 0.051 µM (≈ 0.0465 µg/mL)

CO[C@H]1/C=C/O[C@@]2(C)Oc3c(C)c(O)c4c(c3C2=O)C2=NC3(CCN(CC(C)C)CC3)NC2=C(NC(=O)/C(C)=C/C=C/[C@H](C)[C@H](O)[C@@H](C)[C@@H](O)[C@@H](C)[C@H](OC(=O)Nc2ccccc2)[C@@H]1C)C4=O [drawing 220]
C-25 deacylation i.v. [5, 6]: 0.08%
C-25 deacylation p.o. [5, 6]: 0.001%
CL ([5]; Table 12): 2.4 mL/min/kg
Vd ([5]; Table 12): 1.9 L/kg
t1/2 ([5]; Table 12): 9.3 h
ƒAUC/MIC ([5]; p.o. doses of 10 mg/kg, Table 12): 0.43
plasma unbound fraction ([3]; Table 12): 0.0008%
